# Laboratory results from BindingDB's records for doi:10.1021/jm9904102 (Abbott Laboratories, 2000).
# Molecular target: T1, Polyunsaturated fatty acid 5-lipoxygenase (Homo sapiens, UniProt P09917)
# T1 sequence (P09917 whole entry): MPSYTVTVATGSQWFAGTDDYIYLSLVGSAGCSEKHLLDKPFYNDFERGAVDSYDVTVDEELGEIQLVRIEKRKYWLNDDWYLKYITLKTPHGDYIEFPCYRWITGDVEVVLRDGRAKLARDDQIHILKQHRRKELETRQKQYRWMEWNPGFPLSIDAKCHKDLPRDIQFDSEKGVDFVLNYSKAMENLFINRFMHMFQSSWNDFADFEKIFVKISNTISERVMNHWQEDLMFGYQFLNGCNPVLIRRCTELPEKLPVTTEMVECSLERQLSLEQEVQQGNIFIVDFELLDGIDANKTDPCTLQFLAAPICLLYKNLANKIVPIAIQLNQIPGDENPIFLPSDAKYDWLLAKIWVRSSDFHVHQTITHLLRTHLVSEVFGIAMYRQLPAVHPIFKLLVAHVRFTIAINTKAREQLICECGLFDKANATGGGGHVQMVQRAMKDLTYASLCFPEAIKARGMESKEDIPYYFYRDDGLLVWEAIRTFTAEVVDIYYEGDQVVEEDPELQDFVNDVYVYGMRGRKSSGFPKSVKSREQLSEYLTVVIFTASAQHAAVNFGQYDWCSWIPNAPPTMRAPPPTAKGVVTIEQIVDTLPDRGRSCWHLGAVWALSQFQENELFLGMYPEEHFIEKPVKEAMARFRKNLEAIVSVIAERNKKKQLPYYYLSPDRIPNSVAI
# Test: Inhibition of calcium ionophore (A-23187)-stimulated LTB4 formation in human neutrophil assay
row,IC50 [nM],SMILES
1,15,C/C(=N\OC(c1ccc(OCc2ccc3ccccc3n2)cc1)C1CCCCC1)C(=O)O (stereo unspecified) [S-E-2-{Cyclohexyl-[4-(quinolin-2-ylmethoxy)-phenyl]-methoxyimino}-propionic acid]

# Molecular target: not listed separately
# Test: Inhibition of calcium ionophore (A-23187)-stimulated LTB4 formation in human neutrophil assay
row,SMILES,IC50 [nM]
1,CCCCC(CCCC)C(O/N=C(\C)C(=O)O)c1ccc(OCc2ccc3ccccc3n2)cc1 (stereo unspecified) [2-{2-Butyl-1-[4-(quinolin-2-ylmethoxy)-phenyl]-hexyloxyimino}-propionic acid (2H2O)],14
2,C/C(=N\OC(Cc1ccc(OCc2ccc3ccccc3n2)cc1)C1CCCCC1)C(=O)O (stereo unspecified) [2-{1-Cyclohexyl-2-[4-(quinolin-2-ylmethoxy)-phenyl]-ethoxyimino}-propionic acid],50
3,CC(C)(C)SC/C(=N\OC(c1ccc(OCc2ccc3ccccc3n2)cc1)C1CCCCC1)C(=O)O (stereo unspecified) [3-tert-Butylsulfanyl-2-{cyclohexyl-[4-(quinolin-2-ylmethoxy)-phenyl]-methoxyimino}-propionic acid],120
4,C/C(=N\O[C@H](c1ccc(OCc2ccc3ccccc3n2)cc1)C1CCCCC1)C(=O)O,34
5,C/C(=N\OC(c1ccc(OCc2ccc3ccccc3n2)c(C)c1)C1CCCCC1)C(=O)O (stereo unspecified) [2-{Cyclohexyl-[3-methyl-4-(quinolin-2-ylmethoxy)-phenyl]-methoxyimino}-propionic acid (0.1H2O)],20
6,C/C(CCCCCC(=O)O)=N\OC(c1ccc(OCc2ccc3ccccc3n2)cc1)C1CCCCC1 (stereo unspecified) [7-{Cyclohexyl-[4-(quinolin-2-ylmethoxy)-phenyl]-methoxyimino}-octanoic acid (0.25H2O)],17
7,C/C(=N\OC(c1ccc(OCc2ccc3ccccc3n2)cc1)C1CCCCCC1)C(=O)O (stereo unspecified) [2-{Cycloheptyl-[4-(quinolin-2-ylmethoxy)-phenyl]-methoxyimino}-propionic acid (0.5H2O)],13
8,C/C(=N\O[C@@H](c1ccc(OCc2ccc3ccccc3n2)cc1)C1CCCCC1)C(=O)O,70
9,C/C(=N\OC(c1ccc(OCc2ccc3ccccc3n2)cc1)C1C2CC3CC(C2)CC1C3)C(=O)O (stereo unspecified) [2-{Adamantan-2-yl-[4-(quinolin-2-ylmethoxy)-phenyl]-methoxyimino}-propionic acid],20
10,C/C(=N\OC(c1ccc(OCc2ccc3ccccc3n2)cc1)C1CCCC1)C(=O)O (stereo unspecified) [2-{Cyclopentyl-[4-(quinolin-2-ylmethoxy)-phenyl]-methoxyimino}-propionic acid],16
11,C/C(=N\OCC(c1ccc(OCc2ccc3ccccc3n2)cc1)C1CCCCC1)C(=O)O (stereo unspecified) [2-{2-Cyclohexyl-2-[4-(quinolin-2-ylmethoxy)-phenyl]-ethoxyimino}-propionic acid],20
12,CC(/C=C/C(=O)O)=N\OC(c1ccc(OCc2ccc3ccccc3n2)cc1)C1CCCCC1 (stereo unspecified) [4-{Cyclohexyl-[4-(quinolin-2-ylmethoxy)-phenyl]-methoxyimino}-pent-2-enoic acid (0.25H2O)],40
13,C/C(=N\OC(CCCc1ccc(F)cc1)c1ccc(OCc2ccc3ccccc3n2)cc1)C(=O)O (stereo unspecified) [2-{4-(4-Fluoro-phenyl)-1-[4-(quinolin-2-ylmethoxy)-phenyl]-butoxyimino}-propionic acid],9
14,C=CCC(O/N=C(\C)C(=O)O)c1ccc(OCc2ccc3ccccc3n2)cc1 (stereo unspecified) [2-{1-[4-(Quinolin-2-ylmethoxy)-phenyl]-but-3-enyloxyimino}-propionic acid],142
15,O=C(O)/C(CCc1ccccc1)=N/OC(c1ccc(OCc2ccc3ccccc3n2)cc1)C1CCCCC1 (stereo unspecified) [2-{Cyclohexyl-[4-(quinolin-2-ylmethoxy)-phenyl]-methoxyimino}-4-phenyl-butyric acid (0.5H2O)],20

# Next, values leading:
row,IC50 [nM],SMILES
1,21,O=C(O)/C=N/OC(c1ccc(OCc2nc(-c3ccccc3)cs2)cc1)C1CCCCC1 (stereo unspecified) [{Cyclohexyl-[4-(4-phenyl-thiazol-2-ylmethoxy)-phenyl]-methoxyimino}-acetic acid (1.25H2O)]
2,47,O=C(O)/C=N/OCC(c1ccc(OCc2ccc3ccccc3n2)cc1)C1CCCCC1 (stereo unspecified) [{2-Cyclohexyl-2-[4-(quinolin-2-ylmethoxy)-phenyl]-ethoxyimino}-acetic acid (0.25H2O)]
3,490,O=C(O)/C=N/OC(c1ccc(OCc2csc(-c3ccc(Cl)cc3)n2)cc1)C1CCCCC1 (stereo unspecified) [({4-[2-(4-Chloro-phenyl)-thiazol-4-ylmethoxy]-phenyl}-cyclohexyl-methoxyimino)-acetic acid]
4,22,O=C(O)/C=N/OC(c1ccc(OCc2nc3ccccc3s2)cc1Br)C1CCCCC1 (stereo unspecified) [{[4-(Benzothiazol-2-ylmethoxy)-2-bromo-phenyl]-cyclohexyl-methoxyimino}-acetic acid]
5,290,O=C(O)/C=N/OC(c1ccc(CCc2ccc3ccccc3n2)cc1)C1CCCCC1 (stereo unspecified) [{Cyclohexyl-[4-(2-quinolin-2-yl-ethyl)-phenyl]-methoxyimino}-acetic acid (0.25H2O)]
6,21,O=C(O)/C(=N/OC(c1ccc(OCc2ccc3ccccc3n2)cc1)C1CCCCC1)c1cccs1 (stereo unspecified) [(E)-{Cyclohexyl-[4-(quinolin-2-ylmethoxy)-phenyl]-methoxyimino}-thiophen-2-yl-acetic acid (2.5H2O)]
7,14,O=C(O)/C=N/OC(c1ccc(OCc2nc3cc(F)ccc3s2)cc1Cl)C1CCCCC1 (stereo unspecified) [{[2-Chloro-4-(5-fluoro-benzothiazol-2-ylmethoxy)-phenyl]-cyclohexyl-methoxyimino}-acetic acid]
8,35,CC(C)c1ccc(-c2csc(COc3ccc(C(O/N=C/C(=O)O)C4CCCCC4)cc3)n2)cc1 (stereo unspecified) [(Cyclohexyl-{4-[4-(4-isopropyl-phenyl)-thiazol-2-ylmethoxy]-phenyl}-methoxyimino)-acetic acid (2H2O)]
9,143,O=C(O)/C=N/OC(c1ccc(OCc2nc3ccccc3o2)cc1)C1CCCCC1 (stereo unspecified) [{[4-(Benzooxazol-2-ylmethoxy)-phenyl]-cyclohexyl-methoxyimino}-acetic acid (0.5H2O)]
10,91,O=C(O)/C=N/OC(c1ccc(/C=C/c2ccc3ccccc3n2)cc1)C1CCCCC1 (stereo unspecified) [{Cyclohexyl-[4-(2-quinolin-2-yl-vinyl)-phenyl]-methoxyimino}-acetic acid (0.25H2O)]
11,17,C/C(CCC(=O)O)=N\OC(c1ccc(OCc2ccc3ccccc3n2)cc1)C1CCCCC1 (stereo unspecified) [(Z)-4-{Cyclohexyl-[4-(quinolin-2-ylmethoxy)-phenyl]-methoxyimino}-pentanoic acid]
12,160,O=C(O)/C=N/OC(c1ccc(Oc2ccc3ccccc3n2)cc1)C1CCCCC1 (stereo unspecified) [{Cyclohexyl-[4-(quinolin-2-yloxy)-phenyl]-methoxyimino}-acetic acid (0.25H2O)]
13,150,O=C(O)/C=N/OC(c1ccc(OCc2ccccn2)cc1)C1CCCCC1 (stereo unspecified) [{Cyclohexyl-[4-(pyridin-2-ylmethoxy)-phenyl]-methoxyimino}-acetic acid]
14,8,CC(C)(C)Sc1c(CC(C)(C)C(=O)O)n(Cc2ccc(Cl)cc2)c2ccc(OCc3ccc4ccccc4n3)cc12 [MK-591]
15,21,O=C(O)/C=N/OC(c1ccc(OCc2ccc3ccccc3n2)cc1)C1C2CC3CC(C2)CC1C3 (stereo unspecified) [{Adamantan-2-yl-[4-(quinolin-2-ylmethoxy)-phenyl]-methoxyimino}-acetic acid]
